Laboratory results published in patent US20170073306A1, “POTENT INHIBITORS OF HUMAN CARBONIC ANHYDRASE II AND BOVINE CARBONIC ANHYDRASE II AND THEIR MECHANISM OF ACTION” (priority 2015, published 2017).
Read-outs that look alike come from different tables or passages of the source.

How the values were obtained:
[1] = biological target: T1, Bovine Carbonic Anhydrase-II (bovine erythrocyte CA-II) (Bos taurus, UniProt P00921); experiment: Bovine carbonic anhydrase-II inhibition, 4-nitrophenyl acetate spectrophotometric assay; type: biochemical
T1 construct: pure bovine erythrocyte CA-II; from tissue; host or cells: bovine erythrocytes
Procedure: (§1) Nineteen different analogues of benzamide sulfonamides were evaluated for carbonic anhydrase-II inhibition. The rate of catalyzed reaction was monitored by the amount of product formation by using the chromogenic substrate i.e., 4-nitrophenyl acetate.
4-Nitrophenyl acetate (4-NPA) is a colorless compound which is used as a substrate in carbonic anhydrase inhibition assay. The reaction involves the hydrolysis of 4-nitrophenyl acetate into […] and 4-nitrophenol a yellow colored compound. During this experiment, HEPES-tris buffer was used at 20 mM concentration with pH 7.4.
After 15 min of incubation of the enzyme with the test compound, the substrate was added to initiate the reaction. The reaction was carried out in triplicate with different concentrations of test compounds was used.
In this assay protocol, the reaction was performed by using a 96-well flat bottom plate.
The amount of product formation was measured at 400 nm for 30 min with 1 min interval, multiplate reader SPECTRA max 340 (Molecular Devices, CA, USA) was used to monitor the product formation.
The enzyme inhibitory activities were calculated using the following formula:
% Inhibition=100−(O.D of test/O.D of control)*100
(§2) Where test is the enzyme activity with sample and control is the enzyme activity without sample. The IC50 of the compounds were calculated by using EZ-Fit Enzyme Kinetic Program (Perrella Scientific Inc. Amhrest, U.S.A).

[2] = biological target: T2, Bovine Carbonic Anhydrase-II (Bos taurus, UniProt P00921); experiment: Kinetics studies (Lineweaver-Burk, Dixon plots) against Bovine Carbonic Anhydrase-II; type: biochemical; design: Vmax app: unit not given here; conditions: for Type of Inhibition: Lineweaver-Burk / Dixon plots; for Vmax: enzyme Vmax without inhibitor; for Vmax app: apparent Vmax with inhibitor (0.2-0.00625 μM)
T2 construct: pure bovine erythrocyte CA-II; from tissue; host or cells: bovine erythrocytes
Procedure: FIG. 2B depicts the double reciprocal plot for Ki determination which is between Slope Vs Inhibitor Conc.
FIG. 3B depicts the double reciprocal plot for Ki determination which is between Slope Vs Inhibitor Conc.
Kinetics studies were performed for each analogue. […] The Grafit version 7.0 was used for the construction of Lineveawer-Burk plots and their secondary replots.

MTT cytotoxicity assay = type: cell-based; conditions: mouse, 3T3 mouse fibroblast cells, 3T3 cells, 50% growth inhibition, read-out: Cytotoxicity IC50 ± SD
Procedure: Cytotoxicity studies were performed using a colorimetric assay that measures the reduction of 3-(4,5-dimethythiazol-2-yl)-2,5-diphenyl tetrazolium bromide (MTT) (yellow in color), by mitochondrial enzyme (i.e. succinate dehydrogenase). The MTT enters into the mitochondria of cell, where it is reduced to an insoluble formazan salt (purple in color). The extent of MTT reduction to formazan within cells was measured spectrophotometrically. As reduction of MTT can only occur in metabolically active cells the level of activity is actually a measure of the viability of the cells^22.
Mouse fibroblast cell line 3T3 was cultured in DMEM, supplemented with 5% of FBS, 100 IU/ml of penicillin and 100 μg/ml of streptomycin, and kept at 37° C. in 5% CO2 incubator. For the preparation of cell culture 100 μL/well of cell solution (5×10^4 cells/ml) was added into 96-well plate. The plate was incubated for overnight, and fresh medium was added after the removal of old medium. The test compounds were also added in different concentrations into the plate and plate was again incubated for 48 hrs. After the completion of this incubation period 200 μL MTT (0.5 mg/ml) was added and plate was again incubated for 4 hrs, after this final incubation 100 μL of DMSO was added to each well. The level of MTT reduction to formazan was evaluated by change in absorbance at 540 nm using a micro plate reader (Spectra Max plus, Molecular Devices, CA, USA).

[3] = biological target: T3, Human Carbonic Anhydrase-II (human erythrocyte CA-II) (Homo sapiens, UniProt P00918); experiment: HCA-II inhibitory activity, 4-nitrophenyl acetate spectrophotometric assay; type: biochemical; conditions: 4-nitrophenyl acetate 0.7 mM, pH 7.4, 25° C., 15 min preincubation; read-out: IC50 ± S.E.M. HCA-II
T3 construct: purified human erythrocyte CA-II; from tissue; host or cells: human erythrocytes
Procedure: as §1
Hydrolysis of 4-NPA (a colorless compound): yields 4-nitrophenol and […]. The reaction is monitored by quantifying the formation of 4-nitrophenol, a yellow colored compound.
In successive experiments, HEPES-tris was used as a buffer for the reaction at final concentration of 20 mM, with 7.4 pH. The total reaction volume of 200 μL includes, 140 μL of the HEPES-tris, 20 μL of test compound diluted in DMSO (20 μL of DMSO as a control sample), 20 μL of purified human erythrocyte CA-II (0.1 mg/mL) prepared in deionized water and 20 μL of a solution of 4-NPA (0.7 mM diluted in ethanol). Adhesion of enzyme with the plastic-ware was avoided by the addition of bovine serum albumin (1 mg/mL).
The 20 μL of test compound was incubated with enzyme for a period of 15 min. The rate of product formation was monitored with the addition of 20 μL substrate prepared in ethanol at a final concentration of 0.7 mM 4-nitrophenyl acetate at 25° C. for a period of 30 min with regular interval of 1 min.
The assay was performed in triplicates by using 96-well flat bottom plate.
The enzyme inhibitory activities were calculated using the following formula: […]
as §2

[4] = 4-nitrophenyl acetate 0.7 mM, pH 7.4, 15 min preincubation, read-out: IC50 ± S.E.M. BCA-II
[5] = from secondary replots / Dixon plot, read-out: Ki

T2 sequence (P00921 whole entry): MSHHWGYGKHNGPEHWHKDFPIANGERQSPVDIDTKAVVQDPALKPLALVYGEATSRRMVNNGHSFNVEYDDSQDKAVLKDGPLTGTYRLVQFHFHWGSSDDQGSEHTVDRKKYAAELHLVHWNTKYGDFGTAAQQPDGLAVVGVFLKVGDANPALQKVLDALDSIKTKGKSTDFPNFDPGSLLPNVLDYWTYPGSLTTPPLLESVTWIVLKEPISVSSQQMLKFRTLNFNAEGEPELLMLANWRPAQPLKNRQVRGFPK
T1 sequence (P00921 whole entry): as above

SMILES | Type of Inhibition [2] | Vmax [2] | IC50 [3] [nM] | IC50 [1, 4] [nM] | Vmax app [2] | Ki [2, 5] [nM] | IC50 [1] [nM] | Ki [2] [nM] | IC50 at 48 h (MTT cytotoxicity assay) [nM]
NS(=O)(=O)c1ccc(NC(=S)NC(=O)c2ccccc2)cc1 [Compound 1, N-(4-Sulfamoylphenylcarbamothioyl)benzamide] | Noncompetitive | 99.00 (μM/L/min)^−1 |  |  |  |  | 90 ± 7 | 52 | > 30000
NS(=O)(=O)c1ccc(NC(=S)NC(=O)c2ccc(Cl)cc2)cc1 [Compound 2, 4-Chloro-N-(4-sulfamoylphenylcarbamothioyl)benzamide] | Noncompetitive | 80 (μM/L/min)^−1 | 210 ± 10 | 160 ± 2 | 18.45 | 110 |  |  | > 30000
NS(=O)(=O)c1ccc(NC(=S)NC(=O)c2ccc([N+](=O)[O-])cc2)cc1 [Compound 4, 4-Nitro-N-(4-sulfamoylphenylcarbamothioyl)benzamide] | Noncompetitive | 53.19 (μM/L/min)^−1 | 240 ± 40 | 130 ± 2 | 18.97 | 220 |  |  | > 30000
NS(=O)(=O)c1ccc(NC(=S)NC(=O)c2ccccc2[N+](=O)[O-])cc1 [Compound 7, 2-Nitro-N-(4-sulfamoylphenylcarbamothioyl)benzamide] | Mixed type | 71.42 (μM/L/min)^−1 | 120 ± 2 | 60 ± 5 | 19.30 | 140 |  |  | > 30000
NS(=O)(=O)c1ccc(NC(=S)NC(=O)Cc2ccccc2)cc1 [Compound 8, 2-Phenyl-N-(4-sulfamoylphenylcarbamothioyl)acetamide] | Mixed type | 81.30 (μM/L/min)^−1 | 160 ± 1 | 70 ± 3 | 7.77 | 35 |  |  | > 30000
NS(=O)(=O)c1ccc(NC(=S)NC(=O)c2ccc(Cl)cc2[N+](=O)[O-])cc1 [Compound 12, 4-Chloro-2-nitro-N-(4-sulfamoylphenylcarbamothioyl)benzamide] | Mixed type | 108.69 (μM/L/min)^−1 | 460 ± 30 | 280 ± 7 | 34.12 | 24 |  |  | > 30000
COc1cc(C(=O)NC(=S)Nc2ccc(S(N)(=O)=O)cc2)cc(OC)c1OC [Compound 14, 3,4,5-Trimethoxy-N-(4-sulfamoylphenylcarbamothioyl)benzamide] |  |  | 170 ± 2 | 60 |  |  |  |  | > 30000
NS(=O)(=O)c1ccc(NC(=S)NC(=O)c2ccc([N+](=O)[O-])cc2Cl)cc1 [Compound 15, 2-Chloro-4-nitro-N-(4-sulfamoylphenylcarbamothioyl)benzamide] |  |  | 160 ± 10 | 60 ± 1 |  |  |  |  | > 30000

Further lines, with some results ahead:

Type of Inhibition [2] | Vmax [2] | IC50 [3] [nM] | IC50 [1, 4] [nM] | Vmax app [2] | Ki [2, 5] [nM] | SMILES | IC50 [1] [nM] | Ki [2] [nM] | IC50 at 48 h (MTT cytotoxicity assay) [nM]
Mixed type | 80 (μM/L/min)^−1 | 90 ± 30 | 80 ± 3 | 52.63 | 58 | Cc1ccc(C(=O)NC(=S)Nc2ccc(S(N)(=O)=O)cc2)cc1 [Compound 3, 4-Methyl-N-(4-sulfamoylphenylcarbamothioyl)benzamide] |  |  | > 30000
Noncompetitive | 76.33 (μM/L/min)^−1 | 280 ± 60 | 140 ± 6 | 25.83 | 250 | NS(=O)(=O)c1ccc(NC(=S)NC(=O)c2cccc(Cl)c2)cc1 [Compound 5, 3-Chloro-N-(4-sulfamoylphenylcarbamothioyl)benzamide] |  |  | > 30000
Mixed type | 82.64 (μM/L/min)^−1 | 190 ± 1 | 80 ± 4 | 17.48 | 90 | NS(=O)(=O)c1ccc(NC(=S)NC(=O)c2cccc([N+](=O)[O-])c2)cc1 [Compound 6, 3-Nitro-N-(4-sulfamoylphenylcarbamothioyl)benzamide] |  |  | > 30000
Noncompetitive | 90.90 (μM/L/min)^−1 | 180 ± 4 | 80 ± 2 | 14.61 | 58 | Cc1ccccc1C(=O)NC(=S)Nc1ccc(S(N)(=O)=O)cc1 [Compound 9, 2-Methyl-N-(4-sulfamoylphenylcarbamothioyl)benzamide] |  |  | > 30000
Noncompetitive | 62.5 (μM/L/min)^−1 | 190 | 90 ± 2 | 10.61 | 67 | Cc1cccc(C(=O)NC(=S)Nc2ccc(S(N)(=O)=O)cc2)c1 [Compound 10, 3-Methyl-N-(4-sulfamoylphenylcarbamothioyl)benzamide] |  |  | > 30000
Noncompetitive | 88.49 (μM/L/min)^−1 | 190 ± 5 | 90 ± 3 | 35.21 | 280 | COc1cccc(C(=O)NC(=S)Nc2ccc(S(N)(=O)=O)cc2)c1 [Compound 11, 3-Methoxy-N-(4-sulfamoylphenylcarbamothioyl)benzamide] |  |  | > 30000
 |  | 580 ± 1 | 130 ± 20 |  |  | NS(=O)(=O)c1ccc(NC(=S)NC(=O)c2ccc(F)cc2)cc1 [Compound 13, 4-Fluoro-N-(4-sulfamoylphenylcarbamothioyl)benzamide] |  |  | > 30000
